{
  "source": "patent US7588756B1",
  "about": "“Treatment of cardiac power failure” (priority 1999, dated 2009)",
  "key": {"[1]": {"test_system": "microtubuli and intermediate filaments", "conditions": "biochemical reconstitutive assays; cited from earlier work"}, "[2]": {"test_system": "protein kinase C", "conditions": "cited from earlier work"}, "[3]": {"test_system": "saponin-semipermeabilized skeletal muscle fibres of the rat", "experiment": "Isometric force of saponin-semipermeabilized (skinned) skeletal muscle fibres, indirect measure of Ca2+ release from the SR", "conditions": "for Ca2+ sensitivity of the contractile apparatus / increase of maximum force development compared with the control: slow skeletal musculature (M. soleus); for Ca2+ sensitivity of the contractile apparatus: 5-10 μM; for increase of maximum force development compared with the control: equimolar concentration 5-10 μM", "protocol": "The aim of this test procedure was therefore to examine what functional significance these sequences—in the form of synthetic peptides—have compared with the whole protein for the regulation of the Ca^2+ release from the SR. The Ca^2+ release was measured indirectly on saponin-semipermeabilized skeletal muscle fibres of the rat over an isometric force gradient. The measurement of the isometric force before and after addition of S100A1 peptide/protein served as a control."}, "[4]": {"test_system": "neonatal rat cardiomyocytes", "experiment": "Intracellular Ca2+ transients in cultivated neonatal rat cardiomyocytes after co-cultivation with recombinant S100A1", "assay_type": "cell-based", "conditions": "S100A1 1 μM to 10 μM at two-day intervals, 7 days", "protocol": "Neonatal rat hearts were removed from 3-day-old rats, ventricles separated from the atria and stored coarse-ground on ice in ADS buffer (6.8 g NaCl, 4.76 g HEPES, 0.12 g NaH2PO4, 1 g glucose, 0.4 g KCl, 0.1 g MgSO4 and 1000 ml H2O). In a bioreactor (Wheaton® container), the cells were then separated from the tissue assembly by means of collagenase digestion (108 U/mg/ml collagenase, Worthington, USA), and the released cells separated over a density gradient (Percoll, Pharmacia®) by centrifugation. The cardiomyocyte fraction was resuspended in cell culture medium (DMEM+10% newborn calf serum) and plated in a density of approx. 100,000 cardiomyocytes per well on 24-well cell culture plates. After 24 hours culture at 37° C. and 5% CO2, recombinant S100A1 was added to the cell culture medium at two-day intervals in concentrations of 1 μM to 10 μM. […] The intracellular Ca^2+ transients were then detected and quantified by means of inverse fluorescence microscopy (Olympus OSP 3®) under both rest conditions and electrical field stimulation (PHYWE®-bioelectrical measurement unit; frequencies of 30-300 bpm). […] The changes in the Ca^2+ concentration per time unit were measured as a quotient from the time until the signal maximum and the signal amplitude (+dc/dt) were reached or as a quotient of the time until the half amplitude and the signal amplitude (−dc/dt) were reached. […]"}, "[5]": {"conditions": "clinical studies; cited from earlier work"}},
  "data": [
    {"molecule": "recombinant S100A1: Human recombinant Ca2+-binding protein S100A1 (SEQ ID NO: 2) prepared in genetically modified E. coli", "values": [
      {"measurement": "polymerization of microtubuli and of intermediate filaments", "setting": "[1]", "result": "inhibition"},
      {"measurement": "effect on protein kinase C", "setting": "[2]", "result": "inhibition"},
      {"measurement": "Ca2+ sensitivity of the contractile apparatus", "setting": "[3]", "result": "unchanged"},
      {"measurement": "increase of maximum force development compared with the control", "setting": "[3]", "result": "52%±7%"},
      {"measurement": "rise in the Ca2+ concentration per time unit in the systole (+dc/dt), increase in comparison with the control cell population", "setting": "[4]; p<0.0002", "result": 3, "unit": "times"},
      {"measurement": "drop in the Ca2+ concentration per time unit in the diastole (-dc/dt), acceleration in comparison with the control cell population", "setting": "[4]; p<0.0003", "result": 2.2, "unit": "times"}
    ]},
    {"molecule": "COc1ccc(-c2nc3ccc(C4=NNC(=O)CC4C)cc3[nH]2)cc1", "note": "(stereo not shown) [pimobendan]", "values": [
      {"measurement": "improvement of the heart function compared with placebo", "setting": "[5]", "result": "no significant improvement of the heart function"}
    ]},
    {"molecule": "combination of the three peptides: Combination of the N-terminal, hinge region and C-terminal synthetic S100A1 peptides (peptide 1 GSELETAMETLINVF; peptide 2 LSGFLDAQKDVDA; peptide 3 YVVLVAALTVA)", "values": [
      {"measurement": "Ca2+ sensitivity of the contractile apparatus", "setting": "[3]", "result": "unchanged"},
      {"measurement": "increase of maximum force development compared with the control", "setting": "[3]", "result": "49%±6%"}
    ]},
    {"molecule": "combination of “C-terminal” peptide and the “hinge region”: Combination of the C-terminal and hinge region synthetic S100A1 peptides (peptide 1 LSGFLDAQKDVDA; peptide 2 YVVLVAALTVA)", "values": [
      {"measurement": "increase of isometric force development", "setting": "[3]; before versus after addition of peptide", "result": "15%±4%"}
    ]}
  ]
}
